This is an account of results in US20240050396A1, “COMPOSITIONS AND METHODS FOR THE TREATMENT OF SOLID TUMORS” (POLYPID LTD., priority 2020, published 2024).

The test system of data set [1] is 9L GBM cell line tumor in the brain. Nature of the data set: Syngeneic 9L GBM intra-brain tumor survival (Example 10). It counts as in vivo, Fischer rats. How it is done:
Seventy-five (75) animals were designated for this study. The animals were divided into nine groups as described in Table 6. Group 1 served as untreated control. Groups 2 and 3 served as positive controls and were treated with temozolomide (SOC chemotherapy treatment in GBM patients) by gavage in low (33.5 mg/kg) and high doses (50 mg/kg), respectively. Group 4 (n=10) was treated with Formulation II vehicle at the defect site in the same amount as the Formulation II high amount group. Groups 5-8 (n=10/group) were treated at the excision site Formulation II at 5, 10, 25, or 50 mg/defect site. At study initiation, an incision was made and the calvarium bone of all animals was exposed and 5 mm diameter defect was drilled in the calvarium bone. The dura was cut and the brain was exposed. Each animal was injected with 9L cells (10^5 cells/2 μL/animal) at a depth of ˜1 mm in the brain using a stereotaxic instrument. Following injection of the cells, the incision was sutured. Animals were returned to their cages to recover. Treatment (temozolomide or Formulation II) was set to start five days post cell injection. For Formulation II/Formulation II vehicle treatment, the brain defects in Groups 4-8 were reopened and test articles were administered on top of the site of injection, inside the defect at Day 5. The defects were sealed with bone wax. Animals were returned to their cages to recover. Survival, clinical signs, body weight, and evaluation of cognitive behavior were followed during the study.

The subject of data set [2] is U87 human GBM cell line tumor xenograft. Nature of the data set: Resected U87 GBM xenograft, different amounts of Formulation II (Example 9). The following applies: 300 mg/kg intraperitoneal, four times, every 7 days. The procedure:
This study was performed to assess the efficacy of the anti-tumor effect of different amounts of the sustained release compositions according to some exemplary embodiments of the invention on U87 human GBM cell line tumor xenograft in nude mice.
Mice were injected subcutaneously (SC) with 3 million U87 cells above the right hip. When the tumor reached the volume of about 400 mm^3 after about 9 days, animals were divided to six groups (n=10/group), the mice were anesthetized, and the tumors were resected. The tumor bed sizes were measured and documented. Groups 1, 2 and 3 were administered 20, 50, or 100 mg of formulation II; 0.87% docetaxel locally on the tumor bed, respectively. Group 4 was administered 100 mg of formulation II vehicle (excipients only without DTX) locally on the tumor bed. Group 5 served as a saline control in which ˜100 μL saline was administered locally into the tumor bed. Group 6 served as positive control and was treated with gemcitabine (300 mg/kg administered as an intraperitoneal injection, four times, every 7 days). The skin incision was then closed using a sterile suture. Post-surgery, the animals were returned to their cages for recovery and observation. Tumor size, clinical signs, and body weights were followed for 43 days.
After tumor resection, the area of the tumor bed was measured. […] The applications of Formulation II were calculated and normalized to amount per 1 cm^2 tumor bed area. The normalized application rates and docetaxel doses are detailed in Table 5.

Data set [3] has as its system HCT-8 colorectal carcinoma cells. As to conditions: cited from earlier work.
In data set [4] the test system is KB-8-5 Epidermoid cells. As to conditions: cited from earlier work.
In data set [5] the test system is KB-P-15 Epidermoid cells. As to conditions: cited from earlier work.
In data set [6] the test system is KB-D-15 Epidermoid cells. The following applies: cited from earlier work.
The subject of data set [7] is KB-V-1 Epidermoid cells. As to conditions: cited from earlier work.
For data set [8], the system named is KB-PTX/099 Epidermoid cells. The following applies: cited from earlier work.
In data set [9] the test system is DLD-1 colorectal carcinoma cells. As to conditions: cited from earlier work.
Data set [10] concerns HCT-15 colorectal carcinoma cells. As to conditions: cited from earlier work.
Data set [11] relates to A549.EpoB40 non squamous cell lung carcinoma. The following applies: cited from earlier work.
The subject of data set [12] is LLC1 cell line tumors. Nature of the data set: Antitumor and anti-metastatic effect on resected LLC1 tumors (Example 13). The format is in vivo. As to conditions: 6 mg/kg IP twice a week. How it is done:
The objective of this study was to assess the efficacy of the antitumor and anti-metastatic effect of different amounts of Formulation II on mouse syngeneic louis lung carcinoma (LLC1) cell line tumors in C57BL mice. The selected cell line (LLC1) is known to spontaneously form metastases in the lungs originating from a primary tumor.
Male C57BL mice, 7-8 weeks old, weighing 18-21 grams were designated for this study. LLC1 tumor cells were injected SC to the back of the mice. When the tumors reached a volume of about 400 mm^3 they were resected (at least 90% of the tumor volume was removed; average area of 0.7 cm^2). The animals were divided into 6 groups (n=10). Groups 1-4 were administered different amounts of Formulation II directly to the tumor bed. Untreated group (Group 5) served as negative control and systemically treated group (Group 6) served as positive control. Five (5) animals served as sham group, they were not injected with tumor cells but underwent the surgical procedure (Group 7). Following treatment, the surgical site was sewed and animals were returned to their cages for recovery. Animals that had tumors larger than 1500 mm^3 were humanly terminated. At termination the number of metastases in the lungs was counted in each animal.
The number of metastases was counted post termination/death. In some cases, the lungs condition didn't allow evaluation of metastases. were too decomposed and therefore the number of metastases in these lungs were not evaluated. The counting discriminated between small metastases (0.1-0.5 mm) and big metastases (>0.5 mm). In case of large number of metastases (>100), it was defined as too numerus to count (TNTC).

SMILES strings stand for the structures.

By IC50 is commonly meant the midpoint of a concentration-inhibition curve.

Take `Cn1nnc2c(C(N)=O)ncn2c1=O` [Temozolomide]: the mean survival amounted to 18.8 ± 2.7 days in data set [1] (33.5 mg/kg PO daily for 5 days) and 21.8 ± 3.3 days in data set [1] (50 mg/kg PO daily for 5 days). Also, in data set [1] (day 23, 33.5 mg/kg, 5 treatment days), the survival rate was found to be 0%.
`Nc1ccn([C@@H]2O[C@H](CO)[C@@H](O)C2(F)F)c(=O)n1` [gemcitabine]: in data set [2], the animals found dead is given as 4 and the “animals terminated due to tumor volume that exceeded 1500 mm^3” value is reported as 4. Further, in data set [2] (Day 43), the survival rate is recorded as 20% and the tumor free animals is 2/10. Besides, the average tumor volume in [2] (after 43 days) is given as 780 mm^3.
`CC(=O)O[C@H]1C(=O)[C@@]2(C)[C@H]([C@H](OC(=O)c3ccccc3)[C@]3(O)C[C@H](OC(=O)[C@H](O)[C@@H](NC(=O)c4ccccc4)c4ccccc4)C(C)=C1C3(C)C)[C@]1(OC(C)=O)CO[C@@H]1C[C@@H]2O` [paclitaxel]: the IC50 is 3290 nM in data set [3]; 70.2 nM in data set [4]; 117 nM in [5]; 566 nM in [6]; 3200 nM in data set [7]; 74.1 nM in [8]. The IC50 was 32.8 nM in data set [9], 435 nM in data set [10] and 128 nM in data set [11].
`CC(=O)O[C@H]1C(=O)[C@@]2(C)[C@H]([C@H](OC(=O)c3ccccc3)[C@]3(O)C[C@H](OC(=O)[C@H](O)[C@@H](NC(=O)c4ccccc4)c4ccccc4)C(C)=C1C3(C)C)[C@]1(OC(C)=O)CO[C@@H]1C[C@@H]2O` [taxel]: in data set [12], the “animals that had tumor” value is 4/10, the average lung weight is 226 ± 114 mg, the average tumor volume was 490 mm^3 and the “average weight at termination lower than weight at t=0” value stood at 4%. In data set [12], the “metastases free animals (lungs)” value is given as 5/10. The “animals early terminated due to tumor volume” value in data set [12] (day 23) is “One”. Moreover, in data set [12] (day 25), the animals found dead result is given as “one”.
